{
  "source": "patent US20170328922A1",
  "about": "“METHODS AND PRODUCTS FOR LABELLING LIPIDS” (UNIVERSITY OF SOUTH AUSTRALIA, priority 2014, published 2017)",
  "key": {"[1]": {"tested_on": "Drosophila fat body cells", "experiment": "Live tissue staining with rhenium molecular probes (Examples 10, 13)", "type": "cell-based", "method": "Probes were dissolved in DMSO to obtain a stock solution with a concentration of 10 mM. Stock solutions were stored at room temperature in a dark place. Working solutions were prepared only at the time of use as the probe has reduced solubility in aqueous solutions. A Working solution was a dilution 1/1000 to 1/500 of the stock in DMSO to PBS or cell medium, and as such the percentage of DMSO used in actual cell experiments was less than 1%.\nFor tissues, the tissues were isolated in PBS (or other physiological media) and mounted on a coverslip. For cells, these were grown as per normal practice on coverslips.\nThe media was removed media and replaced with 10-20 μM solution of molecular probes in PBS (or appropriate physiological media/cell media) at a dilution of stock solution from 1/1000-1/500, for 15-30 minutes at physiologically appropriate temperature (37° C. for cell culture or 25° C. for insect larvae). […] If foetal calf serum is necessary for cell health, an increased incubation time may be necessary to obtain adequate staining.\nThe samples were washed for one minute in PBS. If co-staining was performed, the samples were washed in PBS for 30 seconds, before incubating with counterstain.\nTissues were mounted in optical coupling gel, such as carbomer-940 (Snowdrift farm, Tucson, USA) based gel to prevent dehydration prior to imaging and maintain tissue integrate (Rothstein, E. C., Nauman, M., Chesnick S., Balaban R. S., 2006, Multi-photon excitation microscopy in intact animals Journal of Microscopy 222, 58, 64). For cells, the coverslip was mounted in PBS for immediate imaging.\nSamples were imaged immediately following staining.\nRhenium molecular probes were? excited at 800-830 nm using a two-photon pulse laser or 405 steady state laser and detection in the range of 490-670 nm, with an emission maxima at around 570.\nMicrographs of 3T3 L1, 453 cells and CHOK1 cells and Drosophila fat body tissue stained with rhenium molecular probes, PhenCyan top, PhenPyridyl bottom are shown in FIG. 10. […] Left: confocal images; Right: fluorescence microscopy images. […]"}, "[2]": {"experiment": "Rhenium molecular probe-lipid overlay (dot blot)", "type": "binding", "design": "key to interaction with Cholestrol (dot blot): ✓ indicates a positive interaction; x indicates no interaction", "method": "(§1) The experimental protocol probe-lipid overlay was as follows: 50 μM of each lipids was loaded on to PVDF membranes (Perkin Elmer, USA), which were then incubated with molecular probes. PhenCyano and PhenPyridyl were assessed against eleven lipids including; sphingomyelin (Cat # S0756, Sigma Aldrich, USA), sphingosine (Cat # S7049; Sigma Aldrich, USA), L-phosphatidylethanolamine (Cat # P7943, Sigma Aldrich, USA), monosialodanglioside (GM1; Cat # G7641, Sigma Aldrich, USA), oleoly-L-?-lysophosphatidic acid (Cat # L7260, Sigma Aldrich, USA), palmitic acid (Cat # P5917, Sigma Aldrich, USA), sphingomyelin (Cat # S0756, Sigma Aldrich, USA), sphingosine (Cat # S7049; Sigma Aldrich, USA), L-?-phosphatidylethanolamine (Cat # P7943, Sigma Aldrich, USA), monosialodanglioside (GM1; Cat # G7641, Sigma Aldrich, USA), progesterone (Cat #102722, MP Biomedical, USA), ceramide (Cat # C2137; Sigma Aldrich, USA), triacylglycerol mix C2-C10 (Cat #17810, Sigma Aldrich, USA) and cholesteryl acetate (Cat #151114; Sigma Aldrich, USA).\n(§2) All other molecular probes were assessed against a panel of six lipids including; sphingomyelin (Cat # S0756, Sigma Aldrich, USA), sphingosine (Cat # S7049; Sigma Aldrich, USA), L-?-phosphatidylethanolamine (Cat # P7943, Sigma Aldrich, USA), monosialodanglioside (GM1; Cat # G7641, Sigma Aldrich, USA), sphingomyelin (Cat # S0756, Sigma Aldrich, USA), sphingosine (Cat # S7049; Sigma Aldrich, USA), L-?-phosphatidylethanolamine (Cat # P7943, Sigma Aldrich, USA), monosialodanglioside (GM1; Cat # G7641, Sigma Aldrich, USA) and triacylglycerol mix C2-C10 (Cat #17810, Sigma Aldrich, USA).\n(§3) Lipids were dissolved in ethanol, methanol or isopropanol for loading depending on solubility. Following lipid loading, membranes were left to dry for 20-30 minutes, then they were washed for 10 minutes in cold 10% ethanol, before they were incubated with 10 μM solution of each Rhenium molecular probe in cold 10% ethanol for one hour. Membranes were than washed four times for 10 minutes in cold 10% ethanol prior to imaging. Imaging was performed on an Image Quant Las 4000 (GE, Sweden) luminescent image analyser, with the Rhenium molecular probe being detected by excitation at 460 nm using an epi-blue light source, and detected using an 575 nm ethidium bromide filter."}, "[3]": {"experiment": "Rhenium molecular probe-lipid overlay (dot blot)", "type": "binding", "design": "key to interaction with PE (dot blot): ✓ indicates a positive interaction; x indicates no interaction", "method": "as §1, §2, §3"}, "[4]": {"experiment": "Rhenium molecular probe-lipid overlay (dot blot)", "type": "binding", "design": "key to interaction with Ceramide (dot blot): ✓ indicates a positive interaction; x indicates no interaction", "method": "as §1, §3"}, "[5]": {"experiment": "Rhenium molecular probe-lipid overlay (dot blot)", "type": "binding", "design": "key to interaction with Sphingomyline (dot blot): ✓ indicates a positive interaction; x indicates no interaction", "method": "as §1, §2, §3"}, "[6]": {"experiment": "Rhenium molecular probe-lipid overlay (dot blot)", "type": "binding", "conditions": "FIG. 7", "method": "as §1, §3"}, "[7]": {"experiment": "Rhenium molecular probe-lipid overlay (dot blot)", "type": "binding", "conditions": "FIG. 7", "method": "as §1\nLipids were dissolved in ethanol, methanol or isopropanol for loading depending on solubility. […] Imaging was performed on an Image Quant Las 4000 (GE, Sweden) luminescent image analyser, with the Rhenium molecular probe being detected by excitation at 460 nm using an epi-blue light source, and detected using an 575 nm ethidium bromide filter."}, "[8]": {"experiment": "Rhenium molecular probe-lipid overlay (dot blot)", "type": "binding", "design": "key to interaction with Sphingosine (dot blot): ✓ indicates a positive interaction; x indicates no interaction", "method": "as §1, §2, §3"}, "[9]": {"conditions": "10 μM probe, 50 μM lipid on PVDF membrane"}},
  "data": [
    {"smiles": "N#Cc1ccc(-c2nn[n]([Re](=[C]=O)(=[C]=O)=[C]=O)n2)cc1.c1cnc2c(c1)ccc1cccnc12", "note": "[PhenCyano, Triscarbonyl phenanthroline (4-cyanophenyltetrazolato)Rhenium(I)]", "values": [
      {"measurement": "emission spectral profile in the acidic compartment versus lipid droplet", "setting": "[1]; +2 h PF, following autophagic inducement", "result": "blue shift and an increase in emission intensity"},
      {"measurement": "staining pattern in Drosophila fat body cells", "setting": "[1]; live samples, 10-20 μM probe", "result": "distribution consistent with lipid droplet staining"},
      {"measurement": "interaction with Cholestrol (dot blot)", "setting": "[2]; [9]", "result": "✓"},
      {"measurement": "affinity towards cholesterol, in words", "setting": "[2]; FIG. 7 / FIG. 8", "result": "some affinity"},
      {"measurement": "interaction with PE (dot blot)", "setting": "[3]; [9]", "result": "✓"},
      {"measurement": "affinity towards phosphatidylethanolamine (PE), in words", "setting": "[3]; FIG. 7 / FIG. 8", "result": "some affinity"},
      {"measurement": "interaction with Ceramide (dot blot)", "setting": "[4]; [9]", "result": "x"},
      {"measurement": "interaction with ceramide, in words", "setting": "[4]; FIG. 7", "result": "no interaction detected"},
      {"measurement": "interaction with Sphingomyline (dot blot)", "setting": "[5]; [9]", "result": "✓"},
      {"measurement": "affinity towards sphingomyelin, in words", "setting": "[5]; FIG. 7 / FIG. 8", "result": "some affinity"},
      {"measurement": "interaction with cholesterol ester (cholesteryl acetate), in words", "setting": "[6]", "result": "no interaction detected"},
      {"measurement": "interaction with fatty acid (palmitic acid), in words", "setting": "[7]", "result": "no interaction detected"},
      {"measurement": "interaction with Sphingosine (dot blot)", "setting": "[8]; [9]", "result": "✓"},
      {"measurement": "affinity towards sphingosine, in words", "setting": "[8]; FIG. 7 / FIG. 8", "result": "some affinity"}
    ]}
  ]
}
